{"source": "patent US20210369667A1", "about": "“COMPOSITIONS AND METHODS FOR THE PREVENTION AND TREATMENT OF RADIATION DERMATITIS, ECZEMA, BURNS, WOUNDS AND CERTAIN CANCERS” (VIZURI HEALTH SCIENCES CONSUMER HEALTHCARE, INC., priority 2019, published 2021)", "key": {"[1]": {"assay": "Apigenin solubility in NaOH solutions", "assay_type": "physicochemical", "details": "sodium hydroxide solution, aqueous buffer", "description": "A good solubility of polyphenols in the alkaline medium is very important in generating well hydrated polyphenols upon acidification. The regenerated hydrated products mix well in the formulations. Sodium hydroxide solution is an effective solubilizer at different concentrations for apigenin, a polyphenol flavonoid. This is exemplified in the table below— Apigenin Solubility in NaOH Solutions [table]"}, "[2]": {"test_system": "acute radiation dermatitis", "details": "49 patients; prophylactic MMF with emollient cream vs emollient cream alone; cited from earlier work"}, "[3]": {"assay": "SEM particle morphology of hydrated apigenin", "assay_type": "physicochemical", "description": "Scanning Electron Microscopy (SEM) images of the hydrated apigenin, and unprocessed apigenin powder were collected to determine particle morphology details. […] The chemical composition as determined by FTIR and Raman Spectroscopy, could not detect any chemical differences in the unprocessed apigenin and the hydrated apigenin. […] The hydrated apigenin was composed of fibers with diameters of 30-500 nm (a range of being nano-fibers) with aspect ratios measuring greater than 20."}}, "data": [{"smiles": "O=c1cc(-c2ccc(O)cc2)oc2cc(O)cc(O)c12", "note": "[Apigenin]", "values": [{"measurement": "solubility", "setting": "[1]; NaOH Molarity 0.75 moles/liter", "value": "> 150", "unit": "mg/mL"}, {"measurement": "solubility", "setting": "[1]; NaOH Molarity 1.015 moles/liter", "value": "> 200", "unit": "mg/mL"}, {"measurement": "solubility", "setting": "[1]; NaOH Molarity 2.0 moles/liter", "value": "> 300", "unit": "mg/mL"}]}, {"smiles": "C[C@@H]1C[C@H]2[C@@H]3CCC4=CC(=O)C=C[C@]4(C)[C@@]3(Cl)[C@@H](O)C[C@]2(C)[C@@]1(OC(=O)c1ccco1)C(=O)CCl", "note": "[MMF, mometasone furoate]", "values": [{"measurement": "acute radiation dermatitis", "setting": "[2]", "value": "significantly decreased acute radiation dermatitis"}]}, {"smiles": "O=c1cc(-c2ccc(O)cc2)oc2cc(O)cc(O)c12", "note": "[hydrated apigenin]", "values": [{"measurement": "aspect ratios of fibers", "setting": "[3]", "value": "greater than 20"}, {"measurement": "fiber diameters", "setting": "[3]", "value": "30-500 nm"}]}]}
